Patent publication US11851426B2, “Bicyclic amines as CDK2 inhibitors” (Incyte Corporation, priority 2019, dated 2023)

These molecules were tested against CDK2/Cyclin E1 (Homo sapiens (Human), UniProt P24941) (assay: CDK2/Cyclin E1 HTRF enzyme activity assay). Details: 1 mM ATP; CDK2/Cyclin E1 0.25 nM; 60 minutes at room temperature.
Assay type: biochemical
Procedure, shortened: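 Full-length GST-CDK2 co-expressed with FLAG-Cyclin E1 (baculovirus), 0.25 nM, reacted with 50 nM ULight-4E-BP1 (Thr37/46) peptide at 50 μM or 1 mM ATP in HEPES pH 7.5 buffer, 60 min, room temperature. EDTA plus Eu-anti-phospho-4E-BP1 antibody stopped the reaction; HTRF read after 1 h; IC50 from three- or four-parameter fits.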

Row | Structure (SMILES) | IC50 [nM]
1 | CC(C)COc1c(-c2cn[nH]c2)ccc2nc(NC3CCN(S(C)(=O)=O)CC3)nn12 [Example 79, 5-Isobutoxy-N-(1-(methylsulfonyl)piperidin-4-yl)-6-(1H-pyrazol-4-yl)-[1,2,4]triazolo[1,5-a]pyridin-2-amine] | ≤ 20
2 | CCS(=O)(=O)N1CC[C@H](Nc2nc3ccc(-c4cn[nH]c4)c(N4CCCCC4)n3n2)[C@H](C)C1 [Example 84, N-((3R,4S)-1-(Ethylsulfonyl)-3-methylpiperidin-4-yl)-5-(piperidin-1-yl)-6-(1H-pyrazol-4-yl)-[1,2,4]triazolo[1,5-a]pyridin-2-amine] | ≤ 20
3 | C[C@@H]1CN(S(=O)(=O)C2CC2)CC[C@@H]1Nc1nc2ccc(-c3cn[nH]c3)c(N3CCCCC3)n2n1 [Example 85, N-((3R,4S)-1-(Cyclopropylsulfonyl)-3-methylpiperidin-4-yl)-5-(piperidin-1-yl)-6-(1H-pyrazol-4-yl)-[1,2,4]triazolo[1,5-a]pyridin-2-amine] | ≤ 20
4 | C[C@@H]1CN(S(=O)(=O)c2cn(C)cn2)CC[C@@H]1Nc1nc2ccc(-c3cn[nH]c3)c(N3CCCCC3)n2n1 [Example 86, N-((3R,4S)-3-Methyl-1-((1-methyl-1H-imidazol-4-yl)sulfonyl)piperidin-4-yl)-5-(piperidin-1-yl)-6-(1H-pyrazol-4-yl)-[1,2,4]triazolo[1,5-a]pyridin-2-amine] | ≤ 20
5 | CC(C)Oc1c(-c2cn[nH]c2)ncc2nc(N[C@H]3CCN(S(C)(=O)=O)C[C@H]3C)nn12 [Example 87, 5-Isopropoxy-N-((3R,4S)-3-methyl-1-(methylsulfonyl)piperidin-4-yl)-6-(1H-pyrazol-4-yl)-[1,2,4]triazolo[1,5-a]pyrazin-2-amine] | ≤ 20
6 | CCS(=O)(=O)N1CC[C@H](Nc2nc3cnc(-c4cn[nH]c4)c(OC(C)C)n3n2)[C@H](C)C1 [Example 88, N-((3R,4S)-1-(Ethylsulfonyl)-3-methylpiperidin-4-yl)-5-isopropoxy-6-(1H-pyrazol-4-yl)-[1,2,4]triazolo[1,5-a]pyrazin-2-amine] | ≤ 20
7 | CC(C)Oc1c(-c2cn[nH]c2)ncc2nc(N[C@H]3CCN(S(=O)(=O)C4CC4)C[C@H]3C)nn12 [Example 89, N-((3R,4S)-1-(Cyclopropylsulfonyl)-3-methylpiperidin-4-yl)-5-isopropoxy-6-(1H-pyrazol-4-yl)-[1,2,4]triazolo[1,5-a]pyrazin-2-amine] | ≤ 20
8 | C[C@@H]1CN(S(C)(=O)=O)CC[C@@H]1Nc1nc2cnc(-c3cn[nH]c3)c(OC3CCOCC3)n2n1 [Example 90] | ≤ 20
9 | CCS(=O)(=O)N1CC[C@H](Nc2nc3cnc(-c4cn[nH]c4)c(OC4CCOCC4)n3n2)[C@H](C)C1 [Example 91, N-((3R,4S)-1-(Ethylsulfonyl)-3-methylpiperidin-4-yl)-6-(1H-pyrazol-4-yl)-5-((tetrahydro-2H-pyran-4-yl)oxy)-[1,2,4]triazolo[1,5-a]pyrazin-2-amine] | ≤ 20
10 | C[C@@H]1CN(S(=O)(=O)C2CC2)CC[C@@H]1Nc1nc2cnc(-c3cn[nH]c3)c(OC3CCOCC3)n2n1 [Example 92, N-((3R,4S)-1-(Cyclopropylsulfonyl)-3-methylpiperidin-4-yl)-6-(1H-pyrazol-4-yl)-5-((tetrahydro-2H-pyran-4-yl)oxy)-[1,2,4]triazolo[1,5-a]pyrazin-2-amine] | ≤ 20
11 | CCS(=O)(=O)N1CC[C@H](Nc2nc3cnc(-c4cn[nH]c4)c(OC4CCC4)n3n2)[C@H](C)C1 [Example 93, 5-Cyclobutoxy-N-((3R,4S)-1-(ethylsulfonyl)-3-methylpiperidin-4-yl)-6-(1H-pyrazol-4-yl)-[1,2,4]triazolo[1,5-a]pyrazin-2-amine] | ≤ 20
12 | C[C@@H]1CN(S(=O)(=O)c2cnn(C)c2)CC[C@@H]1Nc1nc2cnc(-c3cn[nH]c3)c(OC3CCC3)n2n1 [Example 94, 5-Cyclobutoxy-N-((3R,4S)-3-methyl-1-((1-methyl-1H-pyrazol-4-yl)sulfonyl)piperidin-4-yl)-6-(1H-pyrazol-4-yl)-[1,2,4]triazolo[1,5-a]pyrazin-2-amine] | ≤ 20
13 | C[C@@H]1CN(S(=O)(=O)c2cn(C)cn2)CC[C@@H]1Nc1nc2cnc(-c3cn[nH]c3)c(OC3CCC3)n2n1 [Example 95, 5-Cyclobutoxy-N-((3R,4S)-3-methyl-1-((1-methyl-1H-imidazol-4-yl)sulfonyl)piperidin-4-yl)-6-(1H-pyrazol-4-yl)-[1,2,4]triazolo[1,5-a]pyrazin-2-amine] | ≤ 20
14 | C[C@@H]1CN(S(=O)(=O)c2cnn(C)c2)CC[C@@H]1Nc1nc2ccc(-c3cn[nH]c3)c(OC3CCOCC3)n2n1 [Example 99, N-((3R,4S)-3-Methyl-1-((1-methyl-1H-pyrazol-4-yl)sulfonyl)piperidin-4-yl)-6-(1H-pyrazol-4-yl)-5-((tetrahydro-2H-pyran-4-yl)oxy)-[1,2,4]triazolo[1,5-a]pyridin-2-amine] | ≤ 20
15 | C[C@@H]1CN(S(C)(=O)=O)CC[C@@H]1Nc1nc2cnc(-c3cn[nH]c3)c(OC3CCC3)n2n1 [Example 100, 5-Cyclobutoxy-N-((3R,4S)-3-methyl-1-(methylsulfonyl)piperidin-4-yl)-6-(1H-pyrazol-4-yl)-[1,2,4]triazolo[1,5-a]pyrazin-2-amine] | ≤ 20
16 | CC(C)COc1c(-c2cn[nH]c2)ncc2nc(N[C@H]3CCN(S(C)(=O)=O)C[C@H]3C)nn12 [Example 101, 5-Isobutoxy-N-((3R,4S)-3-methyl-1-(methylsulfonyl)piperidin-4-yl)-6-(1H-pyrazol-4-yl)-[1,2,4]triazolo[1,5-a]pyrazin-2-amine] | ≤ 20

Next, values leading:

Row | IC50 [nM] | Structure (SMILES)
17 | ≤ 20 | C[C@@H]1CN(S(C)(=O)=O)CC[C@@H]1Nc1nc2ccc(-c3cn[nH]c3)c(OCC(F)(F)C(F)F)n2n1 [Example 73, N-((3R,4S)-3-Methyl-1-(methylsulfonyl)piperidin-4-yl)-6-(1H-pyrazol-4-yl)-5-(2,2,3,3-tetrafluoropropoxy)-[1,2,4]triazolo[1,5-a]pyridin-2-amine]
18 | ≤ 20 | C[C@@H]1CN(S(C)(=O)=O)CC[C@@H]1Nc1nc2ccc(-c3cn[nH]c3)c(OC3CC3)n2n1 [Example 74, 5-Cyclopropoxy-N-((3R,4S)-3-methyl-1-(methylsulfonyl)piperidin-4-yl)-6-(1H-pyrazol-4-yl)-[1,2,4]triazolo[1,5-a]pyridin-2-amine]
19 | ≤ 20 | C[C@@H]1CN(S(C)(=O)=O)CC[C@@H]1Nc1nc2ccc(-c3cn[nH]c3)c(OC3CCC(F)(F)C3)n2n1 (stereo partly drawn) [Example 75, 5-((3,3-Difluorocyclopentyl)oxy)-N-((3R,4S)-3-methyl-1-(methylsulfonyl)piperidin-4-yl)-6-(1H-pyrazol-4-yl)-[1,2,4]triazolo[1,5-a]pyridin-2-amine]
20 | ≤ 20 | C[C@@H]1CN(S(C)(=O)=O)CC[C@@H]1Nc1nc2ccc(-c3cn[nH]c3)c(OCC3CCC3)n2n1 [Example 76, 5-(Cyclobutylmethoxy)-N-((3R,4S)-3-methyl-1-(methylsulfonyl)piperidin-4-yl)-6-(1H-pyrazol-4-yl)-[1,2,4]triazolo[1,5-a]pyridin-2-amine]
21 | ≤ 20 | C[C@@H]1CN(S(C)(=O)=O)CC[C@@H]1Nc1nc2ccc(-c3cn[nH]c3)c(OCC3CCCC3)n2n1 [Example 77, 5-(Cyclopentylmethoxy)-N-((3R,4S)-3-methyl-1-(methylsulfonyl)piperidin-4-yl)-6-(1H-pyrazol-4-yl)-[1,2,4]triazolo[1,5-a]pyridin-2-amine]
22 | ≤ 20 | CCCOc1c(-c2cn[nH]c2)ccc2nc(NC3CCN(S(C)(=O)=O)CC3)nn12 [Example 78, N-(1-(Methylsulfonyl)piperidin-4-yl)-5-propoxy-6-(1H-pyrazol-4-yl)-[1,2,4]triazolo[1,5-a]pyridin-2-amine]
23 | ≤ 20 | CS(=O)(=O)N1CCC(Nc2nc3ccc(-c4cn[nH]c4)c(OCC(F)F)n3n2)CC1 [Example 80, 5-(2,2-Difluoroethoxy)-N-(1-(methylsulfonyl)piperidin-4-yl)-6-(1H-pyrazol-4-yl)-[1,2,4]triazolo[1,5-a]pyridin-2-amine]
24 | ≤ 20 | CS(=O)(=O)N1CCC(Nc2nc3ccc(-c4cn[nH]c4)c(OCC(F)(F)C(F)F)n3n2)CC1 [Example 81, N-(1-(Methylsulfonyl)piperidin-4-yl)-6-(1H-pyrazol-4-yl)-5-(2,2,3,3-tetrafluoropropoxy)-[1,2,4]triazolo[1,5-a]pyridin-2-amine]
25 | ≤ 20 | CS(=O)(=O)N1CCC(Nc2nc3ccc(-c4cn[nH]c4)c(OCC4CC4)n3n2)CC1 [Example 82, 5-(Cyclopropylmethoxy)-N-(1-(methylsulfonyl)piperidin-4-yl)-6-(1H-pyrazol-4-yl)-[1,2,4]triazolo[1,5-a]pyridin-2-amine]
26 | ≤ 20 | C[C@@H]1CN(S(C)(=O)=O)CC[C@@H]1Nc1nc2ccc(-c3cn[nH]c3)c(N3CCCCC3)n2n1 [Example 83, N-((3R,4S)-3-Methyl-1-(methylsulfonyl)piperidin-4-yl)-5-(piperidin-1-yl)-6-(1H-pyrazol-4-yl)-[1,2,4]triazolo[1,5-a]pyridin-2-amine]
27 | ≤ 20 | CCS(=O)(=O)N1CC[C@H](Nc2nc3ccc(-c4cn[nH]c4)c(OC(C)C)n3n2)[C@H](C)C1 [Example 96, N-((3R,4S)-1-(Ethylsulfonyl)-3-methylpiperidin-4-yl)-5-isopropoxy-6-(1H-pyrazol-4-yl)-[1,2,4]triazolo[1,5-a]pyridin-2-amine]
28 | ≤ 20 | CC(C)Oc1c(-c2cn[nH]c2)ccc2nc(N[C@H]3CCN(S(=O)(=O)C4CC4)C[C@H]3C)nn12 [Example 97, N-((3R,4S)-1-(Cyclopropylsulfonyl)-3-methylpiperidin-4-yl)-5-isopropoxy-6-(1H-pyrazol-4-yl)-[1,2,4]triazolo[1,5-a]pyridin-2-amine]
29 | ≤ 20 | C[C@@H]1CN(S(C)(=O)=O)CC[C@@H]1Nc1nc2ccc(-c3cn[nH]c3)c(OC3CCOCC3)n2n1 [Example 98, N-((3R,4S)-3-Methyl-1-(methylsulfonyl)piperidin-4-yl)-6-(1H-pyrazol-4-yl)-5-((tetrahydro-2H-pyran-4-yl)oxy)-[1,2,4]triazolo[1,5-a]pyridin-2-amine]
